Data: patent publication US10000488B2, “Heterocyclic compound” (TAKEDA PHARMACEUTICAL COMPANY LIMITED, priority 2014, dated 2018)
Read-outs that look alike come from different tables or passages of the source. Each block holds one compound with its values, some of them ahead of it.

Key:
[1] = molecular target: T1, RORγt (Homo sapiens, UniProt P51449); assay: RORγt binding test using fluorescent-labeled synthetic ligand (TR-FRET); conditions: for inhibition at 1 µM: test compound 1 μM, read-out: binding inhibitory rate (%) of fluorescent-labeled synthetic ligand to RORγt at test compound 1 μM
T1 sequence (P51449 1-497 isoform P51449-2): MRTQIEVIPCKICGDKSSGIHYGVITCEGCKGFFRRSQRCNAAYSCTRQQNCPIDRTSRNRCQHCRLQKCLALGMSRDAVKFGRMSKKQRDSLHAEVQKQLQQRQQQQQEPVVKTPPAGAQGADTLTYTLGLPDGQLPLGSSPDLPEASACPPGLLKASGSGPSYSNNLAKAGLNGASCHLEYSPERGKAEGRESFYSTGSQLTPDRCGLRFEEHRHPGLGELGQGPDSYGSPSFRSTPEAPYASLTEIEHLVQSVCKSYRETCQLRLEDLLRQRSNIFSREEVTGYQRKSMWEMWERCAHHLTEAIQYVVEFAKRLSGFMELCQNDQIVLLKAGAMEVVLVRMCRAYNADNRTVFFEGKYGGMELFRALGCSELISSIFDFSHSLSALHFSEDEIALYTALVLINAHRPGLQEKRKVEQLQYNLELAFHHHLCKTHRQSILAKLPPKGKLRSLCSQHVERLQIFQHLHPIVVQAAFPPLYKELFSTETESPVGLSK
Description: RORγt Binding Test Using Fluorescent-Labeled Synthetic Ligand
The binding activity of the test compound to RORγt was measured by a time resolved fluorescence resonance energy transfer (TR-FRET) utilizing histidine-tagged RORγt, fluorescent-labeled synthetic ligand, and terbium-labeled anti-histidine tag antibody (Invitrogen). First, a test compound diluted with an assay buffer (20 mM Tris-HCl (pH 7.5), 100 mM NaCl, 1 mM DTT, 0.1% BSA) was added to a 384 well plate by 3 μL. Then, RORγt diluted with an assay buffer to 240 nM was added by 3 μL, after which fluorescent-labeled synthetic ligand diluted with the assay buffer to 12 μM was added by 3 μL, and the mixture was stood at room temperature for 20 min. Thereafter, a terbium-labeled anti-histidine tag antibody diluted with the assay buffer to 8 nM was added by 3 μL. The mixture was stood at room temperature for 20 min, and fluorescence intensity (excitation wavelength 320 nm, fluorescence wavelength 520 nm, delay time 100 microseconds) was measured by Envision (PerkinElmer).

[2] = molecular target: T1, RORγt; assay: Cofactor recruitment test (Alpha Screen, biotinylated SRC-1 peptide); format: biochemical; conditions: read-out: signal value inhibitory rate (%) at test compound 1 μM
Description: Cofactor Recruitment Test
Cofactor recruitment test was performed by Alpha Screen (Histidine Detection Kit, PerkinElmer) method. First, a test compound was diluted with an assay buffer (50 mM Tris-HCl (pH 7.5), 50 mM KCl, 1 mM DTT, 0.1% BSA) and added to a 384 well plate by 5 μL. […] The mixture was stood in a dark place for 1 hr, and the signal value was measured by Envision (PerkinElmer).

[3] = molecular target: T1, RORγt; assay: Jurkat reporter test (human IL-17 ROR response element luciferase reporter, RORγt vector); format: cell-based; conditions: Jurkat cells; for inhibition at 3 µM: test compound 3 μM, read-out: luminescence level inhibitory rate (%) at test compound 3 μM
Description: The Jurkat cells used for the reporter test were cultured in a culture medium (RPMI (Invitrogen), 10% FCS (AusGeneX), 100 U/mL penicillin, 100 μg/mL streptomycin). On the day of the test, 4×10^7 cells were recovered by a centrifugal operation (1000 rpm, for 5 min) and suspended in PBS (phosphate buffered saline) (Invitrogen). Thereafter, the cells were recovered again by a centrifugal operation, and suspended in 2 mL of R buffer (NEON transfection kit, Invitrogen). […] Gene transfer was performed by Electroporation apparatus (NEON, Invitrogen) under the conditions of pulse voltage 1350 V, interval 10 milliseconds, number of times 3. The cells after gene transfer were suspended in 40 mL of a reaction medium (RPMI, 10% Lipid reduced FCS (HyClone), 10 mM HEPES (pH 7.5), 100 U/mL penicillin, 100 μg/mL streptomycin, 5 μM lovastatin), and plated in a 96 well plate by 90 μL. A test compound diluted with the reaction medium was added by 10 μL, and the cells were cultured overnight in an incubator. Bright-Glo (Promega) was added by 100 μL, and the mixture was stirred at room temperature for 10 min, and the luminescence level was measured by Envision (PerkinElmer).

SMILES: CC(C)n1c(=O)n(CC2CC2(F)F)c(=O)c2cc(NC(=O)N3CCO[C@@H](C(=O)Nc4ccc(C#N)c(Cl)c4)C3)c(F)cc21 (stereo partly drawn) [Example 331, (2R)—N^2-(3-chloro-4-cyanophenyl)-N^4-(3-((2,2-difluorocyclopropyl)methyl)-7-fluoro-1-isopropyl-2,4-dioxo-1,2,3,4-tetrahydroquinazolin-6-yl)morpholine-2,4-dicarboxamide]
- inhibition at 1 µM [1]: 102%
- inhibition at 1 µM [2]: 109%
- inhibition at 3 µM [3]: 103%

SMILES: CC(C)n1c(=O)n(CC2CC2)c(=O)c2cc(NC(=O)N3CCO[C@@H](C(=O)Nc4cc(Cl)c(C#N)cc4F)C3)c(F)cc21 [Example 347, (2R)—N^2-(5-chloro-4-cyano-2-fluorophenyl)-N^4-(3-(cyclopropylmethyl)-7-fluoro-1-isopropyl-2,4-dioxo-1,2,3,4-tetrahydroquinazolin-6-yl)morpholine-2,4-dicarboxamide]
- inhibition at 1 µM [1]: 102%
- inhibition at 1 µM [2]: 107%
- inhibition at 3 µM [3]: 107%

SMILES: CC(C)n1c(=O)n(CC2CC2)c(=O)c2cc(NC(=O)N3CCC(F)(F)C(n4cnc5cc(C#N)ccc5c4=O)C3)c(F)cc21 (stereo not drawn) [Example 375, 3-(7-cyano-4-oxoquina-zoline-3(4H)-yl)-N-(3-(cyclopropylmethyl)-7-fluoro-1-isopropyl-2,4-dioxo-1,2,3,4-tetrahydro-quinazolin-6-yl)-4,4-difluoropiperidine-1-carboxamide (one stereoisomer, piperidine: derived from tR1)]
- inhibition at 1 µM [1]: 95%

SMILES: CC(C(F)F)n1c(=O)n(CC2CC2)c(=O)c2cc(NC(=O)N3CCOC(C(=O)Nc4ccc(C#N)c(Cl)c4)C3)c(F)cc21 [Example 371, (2R)-N^2-(3-chloro-4-cyanophenyl)-N^4-(3-(cyclopropylmethyl)-1-(1,1-difluoropropan-2-yl)-7-fluoro-2,4-dioxo-1,2,3,4-tetrahydro-quinazolin-6-yl)-morpholine-2,4-dicarboxamide (one stereoisomer, quinazolinedione: derived from tR1)]
- inhibition at 1 µM [1]: 95%

SMILES: CC(C)n1c(=O)n(CC2CC2(F)F)c(=O)c2cc(NC(=O)N3CCCC(n4cnc5cc(C#N)ccc5c4=O)C3)c(F)cc21 (single isomer, unassigned) [Example 369, (3R)-3-(7-cyano-4-oxoquinazoline-3(4H)-yl)-N-(3-(((1R or 1S)-2,2-difluorocyclopropyl)methyl)-7-fluoro-1-isopropyl-2,4-dioxo-1,2,3,4-tetrahydroquinazolin-6-yl)piperidine-1-carboxamide (one stereoisomer, quinazolinedione: derived from tR2)]
- binding inhibitory rate (%) of fluorescent-labeled synthetic ligand to RORγt at test compound 1 μM [1]: 102%
- luminescence level inhibitory rate (%) at test compound 3 μM [3]: 110%

SMILES: CC(C(F)F)n1c(=O)n(CC2CC2)c(=O)c2cc(NC(=O)N3CCOC(C(=O)Nc4ccc(C#N)c(Cl)c4)C3)c(F)cc21 [Example 373, (2R)-N^2-(3-chloro-4-cyanophenyl)-N^4-(3-(cyclopropylmethyl)-1-(1,1-difluoropropan-2-yl)-7-fluoro-2,4-dioxo-1,2,3,4-tetrahydro-quinazolin-6-yl)morpholine-2,4-dicarboxamide (one stereoisomer, quinazolinedione: derived from tR2)]
- binding inhibitory rate (%) of fluorescent-labeled synthetic ligand to RORγt at test compound 1 μM ([1]; 1 µM): 97%

The next lines start with the values.

- inhibition at 1 µM [1]: 98%
- inhibition at 1 µM [2]: 92%
- inhibition at 3 µM [3]: 107%
SMILES: CC(C)n1c(=O)n(CC2CC2)c(=O)c2cc(NC(=O)N3CCC[C@@H](NC(=O)c4ccc5c(c4)CCN(C(=O)OC(C)(C)C)C5)C3)c(F)cc21 [Example 340, tert-butyl 6-(((3R)-1-((3-(cyclopropylmethyl)-7-fluoro-1-isopropyl-2,4-dioxo-1,2,3,4-tetrahydroquinazolin-6-yl)carbamoyl)piperidin-3-yl)carbamoyl)-3,4-dihydroisoquinoline-2 (1H)-carboxylate]

- inhibition at 1 µM [1]: 102%
- inhibition at 1 µM [2]: 108%
- inhibition at 3 µM [3]: 101%
SMILES: Cc1ccc(F)c(C(=O)N[C@@H]2CCCN(C(=O)Nc3cc4c(=O)n(CC5CC5)c(=O)n(C(C)C)c4cc3F)C2)c1 [Example 283, (3R)-N-(3-(cyclopropylmethyl)-7-fluoro-1-isopropyl-2,4-dioxo-1,2,3,4-tetrahydroquinazolin-6-yl)-3-((2-fluoro-5-methylbenzoyl)amino)piperidine-1-carboxamide]

- inhibition at 1 µM [1]: 102%
- inhibition at 1 µM [2]: 106%
- inhibition at 3 µM [3]: 103%
SMILES: CC(C)n1c(=O)n(CC2CC2)c(=O)c2cc(NC(=O)N3CCC[C@@H](n4cnc5cc(C#N)ccc5c4=O)C3)c(F)cc21 [Example 324, (3R)-3-(7-cyano-4-oxoquinazoline-3(4H)-yl)-N-(3-(cyclopropylmethyl)-7-fluoro-1-isopropyl-2,4-dioxo-1,2,3,4-tetrahydroquinazolin-6-yl)piperidine-1-carboxamide]

- inhibition at 1 µM [1]: 102%
- inhibition at 1 µM [2]: 108%
- inhibition at 3 µM [3]: 102%
SMILES: CC(C)n1c(=O)n(CC2CC2)c(=O)c2cc(NC(=O)N3CCC[C@@H](NC(=O)c4cc(Cl)ccc4F)C3)c(F)cc21 [Example 282, (3R)-3-((5-chloro-2-fluorobenzoyl)amino)-N-(3-(cyclopropylmethyl)-7-fluoro-1-isopropyl-2,4-dioxo-1,2,3,4-tetrahydroquinazolin-6-yl)piperidine-1-carboxamide]

- inhibition at 1 µM [1]: 101%
- inhibition at 1 µM [2]: 105%
- inhibition at 3 µM [3]: 101%
SMILES: COC(=O)NCc1ccc(C(=O)N[C@@H]2CCCN(C(=O)Nc3cc4c(=O)n(CC5CC5)c(=O)n(C(C)C)c4cc3F)C2)cc1 [Example 321, methyl (4-(((3R)-1-((3-(cyclopropylmethyl)-7-fluoro-1-isopropyl-2,4-dioxo-1,2,3,4-tetrahydroquinazolin-6-yl)carbamoyl)piperidin-3-yl)carbamoyl)benzyl)carbamate]

- inhibition at 1 µM [1]: 102%
- inhibition at 1 µM [2]: 107%
- inhibition at 3 µM [3]: 102%
SMILES: COc1ccc2c(c1)C(=O)N([C@@H]1CCCN(C(=O)Nc3cc4c(=O)n(CC5CC5)c(=O)n(C(C)C)c4cc3F)C1)C2 [Example 303, (3R)—N-(3-(cyclopropylmethyl)-7-fluoro-1-isopropyl-2,4-dioxo-1,2,3,4-tetrahydroquinazolin-6-yl)-3-(6-methoxy-1-oxo-1,3-dihydro-2H-isoindol-2-yl)piperidine-1-carboxamide]

- binding inhibitory rate (%) of fluorescent-labeled synthetic ligand to RORγt at test compound 1 μM ([1]; 1 µM): 102%
SMILES: CC(C(F)F)n1c(=O)n(CC2CC2)c(=O)c2cc(NC(=O)N3CCCC(n4cnc5cc(C#N)ccc5c4=O)C3)c(F)cc21 [Example 374, (3R)-3-(7-cyano-4-oxoquinazoline-3(4H)-yl)-N-(3-(cyclopropylmethyl)-1-(1,1-difluoropropan-2-yl)-7-fluoro-2,4-dioxo-1,2,3,4-tetrahydro-quinazolin-6-yl)piperidine-1-carboxamide (one stereoisomer, quinazolinedione: derived from tR2)]

- inhibition at 1 µM [1]: 101%
SMILES: CC(C(F)F)n1c(=O)n(CC2CC2)c(=O)c2cc(NC(=O)N3CCCC(n4cnc5cc(C#N)ccc5c4=O)C3)c(F)cc21 [Example 372, (3R)-3-(7-cyano-4-oxoquinazoline-3(4H)-yl)-N-(3-(cyclopropylmethyl)-1-(1,1-difluoropropan-2-yl)-7-fluoro-2,4-dioxo-1,2,3,4-tetrahydro-quinazolin-6-yl)piperidine-1-carboxamide (one stereoisomer, quinazolinedione: derived from tR1)]
